According to ChEMBL document CHEMBL4004883, “Biologically active perspective synthesis of heteroannulated 8-nitroquinolines with green chemistry approach” (Bioorg Med Chem Lett, 2017):
Converted amounts (≈) assume the structure as drawn. The source made the active and inactive calls. The calls are words filed in the database; no cut-off is given here.

Assays:
[1] = Antioxidant activity assessed as assessed as ferric ion reducing activity by measuring absorbance at 700 nm at 60 ug/ml after 20 mins by spectrophotometric method; type: functional
[2] = Antioxidant activity assessed as total antioxidant capacity measured as ascorbic acid equivalents at 60 ug/ml after 90 mins by phosphomolybdenum method; type: functional
[3] = Antioxidant activity assessed as total antioxidant capacity measured as ascorbic acid equivalents at 20 ug/ml after 90 mins by phosphomolybdenum method; type: functional
[4] = system: MCF7; assay: Cytotoxicity against human MCF7 cells assessed as decrease in cell viability after 48 hrs by MTT assay; type: functional, cell-based; settings: MCF7, 48 h
[5] = system: Staphylococcus aureus; assay: Antibacterial activity against Staphylococcus aureus MTCC 96 incubated for 24 hrs under dark condition by microwell dilution method; type: functional; settings: MTCC 96, 24 h
[6] = system: Escherichia coli; assay: Antibacterial activity against Escherichia coli MTCC 1652 incubated for 24 hrs under dark condition by microwell dilution method; type: functional; settings: MTCC 1652, 24 h
[7] = system: Escherichia coli; assay: Antibacterial activity against Escherichia coli MTCC 1652 at 100 ug incubated for 24 hrs under dark condition by agar well diffusion method; type: functional; settings: MTCC 1652, 24 h, read-out: IZ
[8] = system: Pseudomonas aeruginosa; assay: Antibacterial activity against Pseudomonas aeruginosa MTCC 102 incubated for 24 hrs under dark condition by microwell dilution method; type: functional; settings: MTCC 102, 24 h
[9] = system: Staphylococcus aureus; assay: Antibacterial activity against Staphylococcus aureus MTCC 96 at 100 ug incubated for 24 hrs under dark condition by agar well diffusion method; type: functional; settings: MTCC 96, 24 h, read-out: IZ
[10] = Antioxidant activity assessed as assessed as ferric ion reducing activity by measuring absorbance at 700 nm at 100 ug/ml after 20 mins by spectrophotometric method; type: functional
[11] = Antioxidant activity assessed as DPPH radical scavenging activity after 20 mins by UV/VIS Spectrophotometric method; type: functional
[12] = Antioxidant activity assessed as total antioxidant capacity measured as ascorbic acid equivalents at 100 ug/ml after 90 mins by phosphomolybdenum method; type: functional
[13] = Antioxidant activity assessed as assessed as ferric ion reducing activity by measuring absorbance at 700 nm at 20 ug/ml after 20 mins by spectrophotometric method; type: functional
[14] = system: Bacillus subtilis; assay: Antibacterial activity against Bacillus subtilis MTCC 121 incubated for 24 hrs under dark condition by microwell dilution method; type: functional; settings: MTCC 121, 24 h
[15] = system: Bacillus subtilis; assay: Antibacterial activity against Bacillus subtilis MTCC 121 at 100 ug incubated for 24 hrs under dark condition by agar well diffusion method; type: functional; settings: MTCC 121, 24 h, read-out: IZ
[16] = system: A549; assay: Cytotoxicity against human A549 cells assessed as decrease in cell viability after 48 hrs by MTT assay; type: functional, cell-based; settings: A549, 48 h
[17] = system: Pseudomonas aeruginosa; assay: Antibacterial activity against Pseudomonas aeruginosa MTCC 102 at 100 ug incubated for 24 hrs under dark condition by agar well diffusion method; type: functional; settings: MTCC 102, 24 h, read-out: IZ
[18] = system: MCF7; assay: Induction of apoptosis in human MCF7 cells assessed as cell blebbing at IC50 after 48 hrs by acridine orange/ ethidium bromide staining-based fluorescence microscopic method; type: functional
[19] = system: A549; assay: Induction of apoptosis in human A549 cells assessed as cell blebbing at IC50 after 48 hrs by acridine orange/ ethidium bromide staining-based fluorescence microscopic method; type: functional
[20] = system: A549; assay: Induction of apoptosis in human A549 cells assessed as chromatin condensation at IC50 by DAPI staining-based fluorescence microscopic method; type: functional, cell-based
[21] = system: MCF7; assay: Induction of apoptosis in human MCF7 cells assessed as chromatin condensation at IC50 by DAPI staining-based fluorescence microscopic method; type: functional, cell-based
[22] = system: MCF7; assay: Induction of apoptosis in human MCF7 cells assessed as cell shrinkage at IC50 after 48 hrs by acridine orange/ ethidium bromide staining-based fluorescence microscopic method; type: functional
[23] = system: MCF7; assay: Induction of apoptosis in human MCF7 cells assessed as nuclear fragmentation at IC50 by DAPI staining-based fluorescence microscopic method; type: functional, cell-based
[24] = system: A549; assay: Induction of apoptosis in human A549 cells assessed as cell shrinkage at IC50 after 48 hrs by acridine orange/ ethidium bromide staining-based fluorescence microscopic method; type: functional
[25] = system: A549; assay: Induction of apoptosis in human A549 cells assessed as nuclear fragmentation at IC50 by DAPI staining-based fluorescence microscopic method; type: functional, cell-based

SMILES	OD [1]	Activity [2] [µgequiv/ml]	Activity [3] [µgequiv/ml]	IC50 [4] [µM]	MIC [5] [mg/L]	MIC [6] [mg/L]	zone of inhibition at 100 µg/disc [7] [mm]	MIC [8] [mg/L]	zone of inhibition at 100 µg/disc [9] [mm]	OD [10]	IC50 [11] [mg/L]	Activity [12] [µgequiv/ml]	OD [13]	MIC [14] [mg/L]	zone of inhibition at 100 µg/disc [15] [mm]	IC50 [16] [µM]	zone of inhibition at 100 µg/disc [17] [mm]	further results
COc1ccc(C2C(C#N)=C(N)OC3=C2CNc2c3cccc2[N+](=O)[O-])cc1 (stereo not given)	0.211	15.1	7.55	16.8	10 (≈ 26.6 µM)	17 (≈ 45.2 µM)	20	37 (≈ 98.3 µM)	21	0.368	65.42 (≈ 174 µM)	23.2	0.109	12.5 (≈ 33.2 µM)	20	35.6	21	
N#CC1=C(N)OC2=C(CNc3c2cccc3[N+](=O)[O-])C1c1cccs1 (stereo not given)	0.118	5.72	2.19	14.3	5 (≈ 14.2 µM)	17 (≈ 48.2 µM)	22	37 (≈ 105 µM)	23	0.134	194.81 (≈ 553 µM)	11.8	0.098	5 (≈ 14.2 µM)	29	15.4	20	Activity [18]: Active; Activity [19]: Active; Activity [20]: Active; Activity [21]: Active; Activity [22]: Active; Activity [23]: Active; Activity [24]: Active; Activity [25]: Active
COc1ccc(C2C3CNc4c(cccc4[N+](=O)[O-])C3=NN2c2ccccc2)cc1OC (stereo not given)	0.102	8.12	4.04	58.5	12.5 (≈ 29 µM)	34 (≈ 79 µM)	18	55.5 (≈ 129 µM)	19	0.155	169.91 (≈ 395 µM)	12.3	0.084	12.5 (≈ 29 µM)	19	46.4	16	
N#CC1=C(N)OC2=C(CNc3c2cccc3[N+](=O)[O-])C1c1ccc(F)cc1 (stereo not given)	0.098	4.06	2.12	35.7	5 (≈ 13.7 µM)	17 (≈ 46.7 µM)	22	37 (≈ 102 µM)	23	0.12	128.58 (≈ 353 µM)	7.45	0.085	7.5 (≈ 20.6 µM)	26	22.1	20	
COc1ccc(N2N=C3c4cc(Cl)cc([N+](=O)[O-])c4NCC3C2c2ccc(Cl)cc2)cc1 (stereo not given)	0.171	4.43	1.86	25.8	50 (≈ 107 µM)	80.5 (≈ 172 µM)	12	100 (≈ 213 µM)	13	0.253	151.83 (≈ 324 µM)	8.36	0.1	50 (≈ 107 µM)	14	32	13	
N#CC1=C(N)OC2=C(CNc3c2cccc3[N+](=O)[O-])C1c1ccc(Cl)cc1 (stereo not given)	0.125	1.06	0.59	22.7	10 (≈ 26.3 µM)	17 (≈ 44.6 µM)	21	55.5 (≈ 146 µM)	21	0.189	118.03 (≈ 310 µM)	2.57	0.088	10 (≈ 26.3 µM)	24	28.1	18	
